Laboratory results from article PMC6218659, “Structures of DPAGT1 Explain Glycosylation Disease Mechanisms and Advance TB Antibiotic Design” (Cell, 2018).

Legend:
DPAGT1 Arg301His = target: T1, DPAGT1 Arg301His (Homo sapiens, UniProt Q9H3H5, R301H); test: Thermostability assay (label free differential scanning fluorimetry); type: binding, H. sapiens; conditions: 50 μM compound
T1 construct: combined with the LIC-adapted primers to amplify the complete DPAGT1 gene, including the desired mutations; 6xHis purification tag with TEV site (N, cleaved yes); made in house; host or cells: Spodoptera frugiperda Sf9 insect cells (baculovirus)
T1 sequence (Q9H3H5 1-408 R301H): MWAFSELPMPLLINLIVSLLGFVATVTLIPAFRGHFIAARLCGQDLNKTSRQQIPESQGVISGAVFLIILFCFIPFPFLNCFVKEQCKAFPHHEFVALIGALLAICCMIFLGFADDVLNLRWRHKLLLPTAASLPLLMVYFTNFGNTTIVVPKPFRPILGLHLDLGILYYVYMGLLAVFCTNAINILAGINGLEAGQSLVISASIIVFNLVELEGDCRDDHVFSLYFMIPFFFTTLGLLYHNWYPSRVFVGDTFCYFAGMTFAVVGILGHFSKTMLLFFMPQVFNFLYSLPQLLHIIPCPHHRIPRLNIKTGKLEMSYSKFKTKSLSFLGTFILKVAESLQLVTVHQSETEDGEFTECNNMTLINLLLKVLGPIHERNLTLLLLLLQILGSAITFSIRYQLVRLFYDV
Description: (§1) Samples with a volume of 40 μl were prepared containing 0.5 mg/ml protein and 50 μM compound or 5% DMSO in GFB. A glass capillary was dipped into each sample, with the capillary held horizontally to ensure that the capillary was full of the sample. The capillaries were placed on the capillary holder on the Nanotemper Prometheus. Technical triplicates of each sample were prepared, and each experiment was conducted with biological triplicates of each protein. PR.ThermControl software was used to run the experiment and analyse the data. A melting curve from 20 °C – 95 °C at 5 °C/min was performed. The minimum of the first derivative of the 330/350nm ratio was used to determine the Tm1/2.

DPAGT1 Leu168Pro = target: T2, DPAGT1 Leu168Pro (Homo sapiens, UniProt Q9H3H5, L168P); test: as above; type: binding, H. sapiens; conditions: 50 μM compound
T2 construct: combined with the LIC-adapted primers to amplify the complete DPAGT1 gene, including the desired mutations; 6xHis purification tag with TEV site (N, cleaved yes); made in house; host or cells: Spodoptera frugiperda Sf9 insect cells (baculovirus)
T2 sequence (Q9H3H5 1-408 L168P): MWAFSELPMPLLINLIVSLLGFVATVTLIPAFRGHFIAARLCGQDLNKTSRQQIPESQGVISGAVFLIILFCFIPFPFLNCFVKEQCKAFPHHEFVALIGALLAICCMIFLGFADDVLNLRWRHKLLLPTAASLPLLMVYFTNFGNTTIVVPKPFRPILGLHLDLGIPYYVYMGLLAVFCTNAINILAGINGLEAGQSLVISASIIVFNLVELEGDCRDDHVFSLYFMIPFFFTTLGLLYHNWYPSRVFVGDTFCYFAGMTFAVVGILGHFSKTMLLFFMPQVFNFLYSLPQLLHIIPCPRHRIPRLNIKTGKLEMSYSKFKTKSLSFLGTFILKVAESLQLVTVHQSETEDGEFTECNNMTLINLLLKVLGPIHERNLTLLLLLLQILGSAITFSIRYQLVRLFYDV
Description: as §1

DPAGT1 Val264Gly = target: T3, DPAGT1 Val264Gly (Homo sapiens, UniProt Q9H3H5, V264G); test: as above; type: binding, H. sapiens; conditions: 50 μM compound
T3 construct: H. sapiens DPAGT1 (1-408, Val264Gly, N-terminal 6 x HIS tag, TEV cleavage site); 6xHis purification tag with TEV site (N, cleaved yes); made in house; host or cells: Spodoptera frugiperda Sf9 insect cells (baculovirus)
T3 sequence (Q9H3H5 1-408 V264G): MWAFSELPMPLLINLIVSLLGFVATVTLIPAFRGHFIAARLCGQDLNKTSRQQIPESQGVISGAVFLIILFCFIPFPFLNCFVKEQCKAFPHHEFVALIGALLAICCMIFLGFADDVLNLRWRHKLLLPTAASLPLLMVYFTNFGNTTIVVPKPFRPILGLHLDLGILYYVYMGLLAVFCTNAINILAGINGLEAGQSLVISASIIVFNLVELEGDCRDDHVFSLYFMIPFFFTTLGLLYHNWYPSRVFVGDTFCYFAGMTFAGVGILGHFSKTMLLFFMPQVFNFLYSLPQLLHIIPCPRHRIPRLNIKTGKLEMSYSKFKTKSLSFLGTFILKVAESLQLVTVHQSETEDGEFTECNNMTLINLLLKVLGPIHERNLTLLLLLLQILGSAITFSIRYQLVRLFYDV
Description: as §1

DPAGT1 Tyr170Cys = target: T4, DPAGT1 Tyr170Cys (Homo sapiens, UniProt Q9H3H5, Y170C); test: as above; type: binding, H. sapiens; conditions: 50 μM compound
T4 construct: combined with the LIC-adapted primers to amplify the complete DPAGT1 gene, including the desired mutations; 6xHis purification tag with TEV site (N, cleaved yes); made in house; host or cells: Spodoptera frugiperda Sf9 insect cells (baculovirus)
T4 sequence (Q9H3H5 1-408 Y170C): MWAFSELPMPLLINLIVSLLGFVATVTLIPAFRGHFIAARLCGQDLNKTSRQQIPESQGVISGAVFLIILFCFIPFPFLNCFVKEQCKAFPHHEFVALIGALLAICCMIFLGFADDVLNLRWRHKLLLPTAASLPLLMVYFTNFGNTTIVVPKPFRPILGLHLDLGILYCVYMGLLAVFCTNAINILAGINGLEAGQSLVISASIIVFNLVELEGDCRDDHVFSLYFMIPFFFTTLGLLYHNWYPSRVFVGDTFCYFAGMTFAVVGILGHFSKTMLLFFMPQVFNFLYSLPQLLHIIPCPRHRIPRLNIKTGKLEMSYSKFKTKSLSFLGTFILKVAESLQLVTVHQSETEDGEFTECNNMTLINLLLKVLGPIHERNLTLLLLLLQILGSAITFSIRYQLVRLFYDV
Description: as §1

DPAGT1 Arg301Cys = target: T5, DPAGT1 Arg301Cys (Homo sapiens, UniProt Q9H3H5, R301C); test: as above; type: binding, H. sapiens; conditions: 50 μM compound
T5 construct: combined with the LIC-adapted primers to amplify the complete DPAGT1 gene, including the desired mutations; 6xHis purification tag with TEV site (N, cleaved yes); made in house; host or cells: Spodoptera frugiperda Sf9 insect cells (baculovirus)
T5 sequence (Q9H3H5 1-408 R301C): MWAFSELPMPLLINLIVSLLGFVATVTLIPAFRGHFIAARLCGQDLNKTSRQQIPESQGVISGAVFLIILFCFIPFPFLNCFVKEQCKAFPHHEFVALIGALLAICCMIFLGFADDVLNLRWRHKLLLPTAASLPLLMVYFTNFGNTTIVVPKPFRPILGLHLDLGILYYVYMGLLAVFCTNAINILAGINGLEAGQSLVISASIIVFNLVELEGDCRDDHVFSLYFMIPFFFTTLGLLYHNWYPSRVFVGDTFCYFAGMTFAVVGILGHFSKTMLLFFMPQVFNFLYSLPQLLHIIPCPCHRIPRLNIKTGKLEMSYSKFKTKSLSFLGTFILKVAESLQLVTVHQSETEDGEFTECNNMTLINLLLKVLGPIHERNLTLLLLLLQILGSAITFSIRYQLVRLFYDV
Description: as §1

DPAGT1 WT = target: T6, DPAGT1 WT (Homo sapiens, UniProt Q9H3H5); test: as above; type: binding, H. sapiens; conditions: 50 μM compound
T6 construct: H. sapiens DPAGT1 (1-408, N-terminal 6 x HIS tag, TEV cleavage site); 6xHis purification tag with TEV site (N, cleaved yes); made in house; host or cells: Spodoptera frugiperda Sf9 insect cells (baculovirus)
T6 sequence (Q9H3H5 1-408): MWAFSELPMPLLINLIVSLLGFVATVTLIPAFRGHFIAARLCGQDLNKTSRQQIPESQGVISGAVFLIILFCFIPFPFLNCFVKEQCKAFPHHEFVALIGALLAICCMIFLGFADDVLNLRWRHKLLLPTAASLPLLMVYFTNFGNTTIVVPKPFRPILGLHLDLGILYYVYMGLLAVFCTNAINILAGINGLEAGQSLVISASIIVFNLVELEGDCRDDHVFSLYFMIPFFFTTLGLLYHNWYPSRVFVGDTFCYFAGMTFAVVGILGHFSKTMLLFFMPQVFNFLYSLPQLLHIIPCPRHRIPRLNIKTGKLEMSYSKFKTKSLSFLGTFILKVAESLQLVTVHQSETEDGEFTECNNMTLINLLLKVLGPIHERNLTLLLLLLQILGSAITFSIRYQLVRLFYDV
Description: as §1

DPAGT1 = target: T7, DPAGT1 (Homo sapiens, UniProt Q9H3H5); test: Radiolabeled substrate enzyme activity assay; type: biochemical, H. sapiens; conditions: WT DPAGT1, non-titrated substrate at 200 μM
T7 construct: H. sapiens DPAGT1 (1-408, N-terminal 6 x HIS tag, TEV cleavage site); 6xHis purification tag with TEV site (N, cleaved yes); made in house; host or cells: Spodoptera frugiperda Sf9 insect cells (baculovirus)
T7 sequence (Q9H3H5 1-408): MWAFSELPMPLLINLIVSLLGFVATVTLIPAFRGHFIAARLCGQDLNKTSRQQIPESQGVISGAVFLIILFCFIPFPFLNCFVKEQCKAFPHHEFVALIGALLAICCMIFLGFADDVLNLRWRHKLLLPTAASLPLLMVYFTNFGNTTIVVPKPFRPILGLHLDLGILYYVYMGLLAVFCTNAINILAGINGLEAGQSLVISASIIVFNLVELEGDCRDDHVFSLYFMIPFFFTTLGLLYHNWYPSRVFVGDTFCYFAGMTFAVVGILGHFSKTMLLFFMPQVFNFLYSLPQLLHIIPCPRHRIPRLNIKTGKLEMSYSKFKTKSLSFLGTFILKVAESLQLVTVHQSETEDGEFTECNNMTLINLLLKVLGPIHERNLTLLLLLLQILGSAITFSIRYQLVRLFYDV
Description: 2 μl of 2 μM DPAGT1 WT or mutant proteins in GFB buffer supplemented with 5mM extra MgCl2, 1% OGNG/CHS/cardiolipin and dolichyl monophosphate was combined with 2 μl of UDP-N-acetyl [1-14C] […] The reaction was terminated by the addition of 6 μl of 100% methanol and immediately transferred onto ice. 1 μl of sample was spotted onto a silica coated TLC plate in triplicate and run with a mobile phase consisting of chloroform, methanol, and water at a 65:25:4 ratio respectively. After the run, the TLC plate was dried thoroughly, wrapped in cling film, incubated with a phosphor imaging substrate for 4 days, then phosphor imaged using a Biorad. The pixel density of the spots corresponding to the hydrophobic product was divided by combined pixel density of the product and the substrate and multiplied by the known concentration of substrate added to ascertain the amount of product formed.

[1] = target: the molecule itself; test: crystal structure; space group P6(5)22, one DPAGT1 monomer in the asymmetric unit; dimer formed through a crystallographic 2-fold axis; apo WT, apo Val264Gly and Val264Gly complexes with UDP-GlcNAc/Mg2+ or tunicamycin
[2] = target: the molecule itself; test: native MS; purified DPAGT1 diluted to 10 uM, buffer exchanged into 200 mM ammonium acetate, 0.16% OGNG; Q Exactive modified for high-mass transmission, positive ion mode

## dolichyl phosphate [Dol-P]
DPAGT1 Arg301His
  Thermostability (Tm1/2) with added compound: 56.2±1.2 °C
DPAGT1 Leu168Pro
  Thermostability (Tm1/2) with added compound: 52.5±0.3 °C
DPAGT1 Val264Gly
  Thermostability (Tm1/2) with added compound: 57.2±0.2 °C
DPAGT1 Tyr170Cys
  Thermostability (Tm1/2) with added compound: 54.0±1.0 °C
DPAGT1 Arg301Cys
  Thermostability (Tm1/2) with added compound: 56.4±0.5 °C
DPAGT1 WT
  Thermostability (Tm1/2) with added compound: 58.5 °C
DPAGT1
  kcat: 0.00333 ± 0.0002 s⁻¹
DPAGT1; read-out: apparent Km
  Km: 36.3 ± 7.2 µM

B1: H. sapiens DPAGT1 (1-408, Val264Gly, N-terminal 6 x HIS tag, TEV cleavage site) (enzyme, human, UniProt Q9H3H5 1-408, looked up)
chain: MWAFSELPMPLLINLIVSLLGFVATVTLIPAFRGHFIAARLCGQDLNKTSRQQIPESQGVISGAVFLIILFCFIPFPFLNCFVKEQCKAFPHHEFVALIGALLAICCMIFLGFADDVLNLRWRHKLLLPTAASLPLLMVYFTNFGNTTIVVPKPFRPILGLHLDLGILYYVYMGLLAVFCTNAINILAGINGLEAGQSLVISASIIVFNLVELEGDCRDDHVFSLYFMIPFFFTTLGLLYHNWYPSRVFVGDTFCYFAGMTFAGVGILGHFSKTMLLFFMPQVFNFLYSLPQLLHIIPCPRHRIPRLNIKTGKLEMSYSKFKTKSLSFLGTFILKVAESLQLVTVHQSETEDGEFTECNNMTLINLLLKVLGPIHERNLTLLLLLLQILGSAITFSIRYQLVRLFYDV
notes: human DPAGT1, residues 1-408, full length, with the missense variant Val264Gly found in some congenital myasthenic syndrome patients; After TEV cleavage an additional N-terminal serine remains (measured mass 46135 Da); Used for the apo, UDP-GlcNAc and tunicamycin crystal structures; also called Val264Gly DPAGT1; V264G variant; source: Sf9 insect cells (baculovirus), purified (OGNG/CHS extraction, …)
[1]
  binding result: binds

B2: H. sapiens DPAGT1 (1-408, N-terminal 6 x HIS tag, TEV cleavage site), wild type (enzyme, human, UniProt Q9H3H5 1-408, looked up)
chain: MWAFSELPMPLLINLIVSLLGFVATVTLIPAFRGHFIAARLCGQDLNKTSRQQIPESQGVISGAVFLIILFCFIPFPFLNCFVKEQCKAFPHHEFVALIGALLAICCMIFLGFADDVLNLRWRHKLLLPTAASLPLLMVYFTNFGNTTIVVPKPFRPILGLHLDLGILYYVYMGLLAVFCTNAINILAGINGLEAGQSLVISASIIVFNLVELEGDCRDDHVFSLYFMIPFFFTTLGLLYHNWYPSRVFVGDTFCYFAGMTFAVVGILGHFSKTMLLFFMPQVFNFLYSLPQLLHIIPCPRHRIPRLNIKTGKLEMSYSKFKTKSLSFLGTFILKVAESLQLVTVHQSETEDGEFTECNNMTLINLLLKVLGPIHERNLTLLLLLLQILGSAITFSIRYQLVRLFYDV
notes: human dolichyl-phosphate N-acetylglucosamine-phosphotransferase DPAGT1 (E.C. 2.7.8.15), residues 1-408, full-length wild type; After TEV cleavage an additional N-terminal serine remains (measured mass 46177 Da); Integral membrane protein kept in OGNG/CHS/cardiolipin (or DOPG) detergent-lipid buffer; also called WT DPAGT1; GPT; source: Sf9 insect cells (baculovirus), purified (OGNG/CHS extraction, …)
[2]
  stoichiometry N: 2
